In general, Emax refers to the maximal effect, on the per cent scale that the assay sets.

Molecules are shown by their SMILES. A value given as a limit tells only on which side of the number the result lay.

The test system of series [1] is patients with mild-to-moderate AD. Conditions: human, in vivo; cited from earlier work.
Series [2] deals with T1, human muscarinic M1 receptor (Homo sapiens, UniProt P11229).
T1 construct: expressed in transfected cells
T1 sequence (P11229 1-460): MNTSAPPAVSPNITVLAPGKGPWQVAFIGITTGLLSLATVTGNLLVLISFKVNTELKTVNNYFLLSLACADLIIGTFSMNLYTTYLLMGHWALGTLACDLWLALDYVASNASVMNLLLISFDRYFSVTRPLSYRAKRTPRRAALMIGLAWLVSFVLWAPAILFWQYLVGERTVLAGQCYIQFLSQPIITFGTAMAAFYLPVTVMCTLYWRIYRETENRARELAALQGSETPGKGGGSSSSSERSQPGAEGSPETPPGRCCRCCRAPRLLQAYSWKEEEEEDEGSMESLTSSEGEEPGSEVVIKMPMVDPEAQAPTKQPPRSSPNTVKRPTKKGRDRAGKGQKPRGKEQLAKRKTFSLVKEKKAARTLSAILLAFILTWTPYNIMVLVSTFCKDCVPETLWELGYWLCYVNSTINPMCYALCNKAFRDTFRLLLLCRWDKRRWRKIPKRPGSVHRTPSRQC
The series is described as follows: Alphascreen Surefire phospho-ERK1/2 assay, M1. Conditions: for EC50: CHO cells, agonist 5 min, read-out: pEC50 M1 (converted). The series is classed as cell-based. The method, then:
(§1) ERK1/2 phosphorylation is a downstream consequence of both Gq/11 and Gi/o protein coupled receptor activation, making it highly suitable for the assessment of M1, M3 (Gq/11 coupled) and M2, M4 receptors (Gi/o coupled), rather than using different assay formats for different receptor subtypes. CHO cells stably expressing the human muscarinic M1, M2, M3 or M4 receptor were plated (25K/well) onto 96-well tissue culture plates in MEM-alpha+10% dialysed FBS. Once adhered, cells were serum-starved overnight. Agonist stimulation was performed by the addition of 5 μL agonist to the cells for 5 min (37° C.). Media was removed and 50 μL of lysis buffer added.

Series [3] addresses T2, human muscarinic M2 receptor (Homo sapiens, UniProt P08172).
T2 construct: expressed in transfected cells
T2 sequence (P08172 1-466): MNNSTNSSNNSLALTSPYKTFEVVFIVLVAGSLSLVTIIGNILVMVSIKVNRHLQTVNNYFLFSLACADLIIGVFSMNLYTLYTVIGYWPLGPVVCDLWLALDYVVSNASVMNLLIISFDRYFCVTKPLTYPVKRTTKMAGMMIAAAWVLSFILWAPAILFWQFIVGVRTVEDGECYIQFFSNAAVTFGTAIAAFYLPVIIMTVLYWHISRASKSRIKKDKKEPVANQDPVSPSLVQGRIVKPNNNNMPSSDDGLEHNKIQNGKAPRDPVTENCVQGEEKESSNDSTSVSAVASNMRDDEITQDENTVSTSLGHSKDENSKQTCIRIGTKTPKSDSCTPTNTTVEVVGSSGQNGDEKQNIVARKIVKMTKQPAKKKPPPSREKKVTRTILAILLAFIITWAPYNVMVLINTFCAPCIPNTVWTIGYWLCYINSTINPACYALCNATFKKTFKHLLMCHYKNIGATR
The series can be described thus: Alphascreen Surefire phospho-ERK1/2 assay, M2. The series is classed as cell-based. Conditions: CHO cells, agonist 5 min. How it is done:
as §1
Background: Bead proximity is the source of the signal in Alpha formats.

Series [4] deals with T3, human muscarinic M3 receptor (Homo sapiens, UniProt P20309).
T3 construct: expressed in transfected cells
T3 sequence (P20309 whole entry): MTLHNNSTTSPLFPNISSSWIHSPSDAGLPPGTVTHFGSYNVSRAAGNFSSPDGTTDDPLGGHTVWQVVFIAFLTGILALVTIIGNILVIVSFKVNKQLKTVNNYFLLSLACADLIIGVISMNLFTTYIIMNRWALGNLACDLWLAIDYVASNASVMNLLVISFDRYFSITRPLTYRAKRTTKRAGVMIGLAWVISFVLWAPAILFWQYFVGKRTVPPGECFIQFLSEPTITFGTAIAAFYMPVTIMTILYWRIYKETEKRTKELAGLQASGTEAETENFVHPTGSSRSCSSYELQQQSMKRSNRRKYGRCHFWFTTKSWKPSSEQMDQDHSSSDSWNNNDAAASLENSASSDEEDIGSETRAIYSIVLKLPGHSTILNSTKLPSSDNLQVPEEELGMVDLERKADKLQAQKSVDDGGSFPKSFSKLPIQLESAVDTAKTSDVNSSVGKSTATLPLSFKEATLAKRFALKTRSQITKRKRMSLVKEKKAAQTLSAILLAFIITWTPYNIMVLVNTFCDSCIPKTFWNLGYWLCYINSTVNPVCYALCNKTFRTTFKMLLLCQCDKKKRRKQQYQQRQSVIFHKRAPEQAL
The series is described as follows: Alphascreen Surefire phospho-ERK1/2 assay, M3. The series is classed as cell-based. The note with it: CHO cells, agonist 5 min; read-out: pEC50 M3 (converted). The method, then:
as §1

For series [5], the target named is T4, human muscarinic M4 receptor (Homo sapiens, UniProt P08173).
T4 construct: expressed in transfected cells
T4 sequence (P08173 1-479): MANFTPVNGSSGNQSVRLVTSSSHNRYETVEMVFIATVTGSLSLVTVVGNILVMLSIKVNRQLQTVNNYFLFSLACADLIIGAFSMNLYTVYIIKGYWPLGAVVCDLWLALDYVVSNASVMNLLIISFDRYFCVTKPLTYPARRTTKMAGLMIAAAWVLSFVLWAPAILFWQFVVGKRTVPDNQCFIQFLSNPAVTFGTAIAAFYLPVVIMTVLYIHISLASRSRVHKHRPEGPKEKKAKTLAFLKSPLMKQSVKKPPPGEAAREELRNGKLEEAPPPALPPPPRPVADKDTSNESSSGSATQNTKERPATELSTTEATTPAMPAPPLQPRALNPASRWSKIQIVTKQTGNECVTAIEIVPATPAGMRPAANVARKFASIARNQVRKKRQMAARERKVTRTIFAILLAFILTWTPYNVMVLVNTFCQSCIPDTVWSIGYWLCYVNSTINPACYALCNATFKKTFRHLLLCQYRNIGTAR
The series is described as follows: Alphascreen Surefire phospho-ERK1/2 assay, M4. The series is classed as cell-based. Conditions: CHO cells, agonist 5 min; read-out: pEC50 M4 (converted). How it is done:
as §1

For series [6], the system named is scopolamine-induced amnesia. The series can be described thus: Passive avoidance task. Conditions: 3, 10, 30 mg/kg po. It counts as in vivo. How it is done:
Studies were carried out as described previously by Foley et al., (2004) Neuropsychopharmacology. In the passive avoidance task scopolamine administration (1 mg/kg, i.p.) at 6 hours following training rendered animals amnesic of the paradigm. A dose range of 3, 10, and 30 mg/kg (po) free base, administered 90 minutes prior to the training period via oral gavage, was examined.

`Cc1ccc(Cc2cc3c(=O)n([C@H]4CCCC[C@@H]4O)cnc3c3ccccc23)cn1` [MK-7622]: in series [1], the “incidence of cholinergic adverse events” value is reported as 21%.
With `CCOC(=O)N1C2CCC1CC(N1CCC3(CC1)CNC(=O)C3)C2` (single isomer, unassigned) [Example 2-2 Isomer 1, ethyl 3-(3-oxo-2,8-diazaspiro[4.5]dec-8-yl)-8-azabicyclo[3.2.1]octane-8-carboxylate], the EC50 in series [2] is 79.4 nM; in series [3] (read-out: pEC50 M2 (converted)), > 20 µM; in series [4], > 20 µM; in series [5] it was 200 nM. Besides, the Emax in series [2] (CHO, read-out: % Emax cf. ACh, M1, CHO cells, agonist 5 min) is 99%; in series [3] (read-out: % Emax cf. ACh, M2), 0%. Besides, the “effect on scopolamine-induced amnesia” value in series [6] is listed as “reverse scopolamine-induced amnesia of the paradigm in a dose-dependent manner”.
`CCOC(=O)N1C2CCC1CC(N1CCC3(CC1)CNC(=O)C3)C2` (single isomer, unassigned) [Example 2-2 Isomer 2, ethyl 3-(3-oxo-2,8-diazaspiro[4.5]dec-8-yl)-8-azabicyclo[3.2.1]octane-8-carboxylate]: the values for the EC50 in series [2] and in series [5] were 12.6 nM and 25.1 nM, respectively.
